Results on 24 compounds are retold here after patent publication US8569311B2, “Pyridyl piperidine orexin receptor antagonists” (Merch Sharp & Dohme Corp., priority 2007, dated 2013).

The target in one assay is OX1R (Rattus norvegicus, UniProt P56718). Put plainly: radioligand binding assay, OX1 receptor. To be noted: membranes prepared from CHO cells expressing the OX1 receptor. The protocol: (§1) The utility of the compounds in accordance with the present invention as orexin receptor OX1R and/or OX2R antagonists may be readily determined without undue experimentation by methodology well known in the art, including the “FLIPR Ca^2+ Flux Assay” (Okumura et al., Biochem. Biophys. Res. Comm 280:976-981, 2001). In a typical experiment the OX1 and OX2 receptor antagonistic activity of the compounds of the present invention was determined in accordance with the following experimental method. For intracellular calcium measurements, Chinese hamster ovary (CHO) cells expressing the rat orexin-1 receptor or the human orexin-2 receptor, are grown in Iscove's modified DMEM containing 2 mM L-glutamine, […], 1% hypoxanthine-thymidine supplement, 100 U/ml penicillin, 100 ug/ml streptomycin and 10% heat-inactivated fetal calf serum (FCS). The cells are seeded at 20,000 cells/well into Becton-Dickinson black 384-well clear bottom sterile plates coated with poly-D-lysine. All reagents were from GIBCO-Invitrogen Corp. The seeded plates are incubated overnight at 37° C. and 5% CO2. Ala-6,12 human orexin-A as the agonist is prepared as a 1 mM stock solution in 1% bovine serum albumin (BSA) and diluted in assay buffer (HBSS containing 20 mM HEPES, 0.1% BSA and 2.5 mM probenecid, pH7.4) for use in the assay at a final concentration of 70 pM. Test compounds are prepared as 10 mM stock solution in DMSO, then diluted in 384-well plates, first in DMSO, then assay buffer. On the day of the assay, cells are washed 3 times with 100 ul assay buffer and then incubated for 60 min (37° C., 5% CO2) in 60 ul assay buffer containing 1 uM Fluo-4AM ester, 0.02% pluronic acid, and 1% BSA. The dye loading solution is then aspirated and cells are washed 3 times with 100 ul assay buffer. 30 ul of that same buffer is left in each well. Within the Fluorescent Imaging Plate Reader (FLIPR, Molecular Devices), test compounds are added to the plate in a volume of 25 ul, incubated for 5 min and finally 25 ul of agonist is added. Fluorescence is measured for each well at 1 second intervals for 5 minutes and the height of each fluorescence peak is compared to the height of the fluorescence peak induced by 70 pM Ala-6,12 orexin-A with buffer in place of antagonist. For each antagonist, IC50 value (the concentration of compound needed to inhibit 50% of the agonist response) is determined. Alternatively, compound potency can be assessed by a radioligand binding assay (described in Bergman et. al. Bioorg. Med. Chem. Lett. 2008, 18, 1425-1430) in which the inhibition constant (Ki) is determined in membranes prepared from CHO cells expressing either the OX1 or OX2 receptor. The intrinsic orexin receptor antagonist activity of a compound which may be used in the present invention may be determined by these assays.

The target of a further assay is OX2R (Homo sapiens (Human), UniProt O43614). As to the kind of experiment: radioligand binding assay, OX2 receptor. To be noted: membranes prepared from CHO cells expressing the OX2 receptor. The protocol:
as §1

Chain of OX2R (O43614 whole entry): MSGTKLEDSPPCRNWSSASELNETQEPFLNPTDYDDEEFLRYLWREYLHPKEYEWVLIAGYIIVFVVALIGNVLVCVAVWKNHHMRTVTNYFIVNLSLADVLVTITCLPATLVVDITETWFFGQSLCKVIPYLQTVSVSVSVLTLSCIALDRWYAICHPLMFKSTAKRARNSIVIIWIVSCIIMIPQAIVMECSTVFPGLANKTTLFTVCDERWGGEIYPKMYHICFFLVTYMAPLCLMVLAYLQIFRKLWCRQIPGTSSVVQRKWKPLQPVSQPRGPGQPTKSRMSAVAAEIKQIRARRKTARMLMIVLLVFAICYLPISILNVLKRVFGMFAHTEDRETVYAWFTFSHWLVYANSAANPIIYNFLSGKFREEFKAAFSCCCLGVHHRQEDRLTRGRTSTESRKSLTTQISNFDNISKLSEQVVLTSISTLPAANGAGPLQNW
Chain of OX1R (P56718 whole entry, looked up): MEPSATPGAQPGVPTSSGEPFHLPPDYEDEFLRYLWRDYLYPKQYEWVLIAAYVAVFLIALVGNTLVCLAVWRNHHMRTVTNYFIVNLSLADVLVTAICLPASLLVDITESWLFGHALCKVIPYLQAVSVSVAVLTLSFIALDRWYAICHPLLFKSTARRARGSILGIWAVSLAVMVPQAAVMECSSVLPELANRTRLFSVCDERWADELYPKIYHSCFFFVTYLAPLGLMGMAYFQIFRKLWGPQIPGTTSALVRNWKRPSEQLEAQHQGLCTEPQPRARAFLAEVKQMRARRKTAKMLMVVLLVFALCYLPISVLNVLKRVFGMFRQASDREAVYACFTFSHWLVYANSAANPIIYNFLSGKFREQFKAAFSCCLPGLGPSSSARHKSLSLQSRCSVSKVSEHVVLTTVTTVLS

As to `Cc1ccc(-c2nccs2)c(C(=O)N2C[C@H](COc3ccc(F)cn3)CC[C@H]2C)c1` [Compound 1-1, 5-fluoro-2-({(3R,6R)-6-methyl-1-[5-methyl-2-(1,3-thiazol-2-yl)benzoyl]piperidin 3-yl}methoxy)pyridine], the Ki on OX1R was 1.8 nM; at OX2R, 0.24 nM.
Take `C[C@@H]1CC[C@@H](COc2ccc(F)cn2)CN1C(=O)c1ccccc1-n1nccn1` [Compound 1-4, 5-fluoro-2-({(3R,6R)-6-methyl-1-[2-(2H-1,2,3-triazol-2-yl)benzoyl]piperidin-3-yl}methoxy)pyridine]: the Ki at OX1R amounted to 12 nM; at OX2R, 0.37 nM.
In the case of `C[C@@H]1CC[C@@H](COc2ccc(F)cn2)CN1C(=O)c1cc(F)ccc1-n1nccn1` [Compound 1-8, 5-fluoro-2-({(3R,6R)-1-[5-fluoro-2-(2H-1,2,3-triazol-2-yl)benzoyl]-6-methylpiperidin-3-yl}methoxy)pyridine], the inhibition constant Ki amounted to 6.8 nM on OX1R and 0.5 nM at OX2R.
For the compound `Cc1ccc(-c2ccccc2)c(C(=O)N2C[C@H](COc3ccc(F)cn3)CC[C@H]2C)c1` [Compound 1-10, 5-fluoro-2-({(3R,6R)-6-methyl-1-[(4-methylbiphenyl-2-yl)carbonyl]piperidin-3-yl}methoxy)pyridine], the inhibitory constant (Ki) was determined as 0.71 nM on OX1R and 0.08 nM on OX2R.
In the same order, the values of `Cc1ccc(-c2ccccn2)c(C(=O)N2C[C@H](COc3ccc(F)cn3)CC[C@H]2C)c1` [Compound 1-15, 5-fluoro-2-{[(3R,6R)-6-methyl-1-(5-methyl-2-pyridin-2-ylbenzoyl)piperidin-3-yl}methoxy}pyridine] are 3.2 nM and 0.35 nM.
The matching figures for `C[C@@H]1CC[C@@H](COc2ccc(F)cn2)CN1C(=O)c1cc(F)ccc1-c1ncccn1` [Compound 1-19, 2-{4-fluoro-2-[((2R,5R)-5-{[(5-fluoropyridin-2-yl)oxy]methyl}-2-methylpiperidin-1-yl)carbonyl]phenyl}pyrimidine]: 10 nM and 0.53 nM.
In the case of `Cc1ccc(-c2cn[nH]c2)c(C(=O)N2C[C@H](COc3ccc(F)cn3)CC[C@H]2C)c1` [Compound 1-21, 5-fluoro-2-({(3R,6R)-6-methyl-1-[5-methyl-2-(1H-pyrazol-4-yl)benzoyl]piperidin-3-yl}methoxy)pyridine], the values for the Ki on OX1R and on OX2R were 7.1 nM and 0.48 nM, respectively.
For the compound `CCOc1ccccc1C(=O)N1C[C@H](COc2ccc(F)cn2)CC[C@H]1C` [Compound 1-24, 2-{[(3R,6R)-1-(2-ethoxybenzoyl)-6-methylpiperidin-3-yl]methoxy}-5-fluoropyridine], the inhibitory constant (Ki) on OX1R worked out at 36 nM; at OX2R it was 1.7 nM.
The matching figures for `C[C@@H]1CC[C@@H](COc2ccc(F)cn2)CN1C(=O)c1cccc2cc[nH]c12` [Compound 1-27, 7-[((2R,5R)-5-{[(5-fluoropyridin-2-yl)oxy]methyl}-2-methylpiperidin-1-yl)carbonyl]-1H-indole]: 75 nM and 10 nM.
As for `C[C@@H]1CC[C@@H](COc2ccc(F)cn2)CN1C(=O)c1ccccc1-c1ncccn1` [Compound 1-28, 2-{2-[((2R,5R)-5-{[(5-fluoropyridin-2-yl)oxy]methyl}-2-methylpiperidin-1-yl)carbonyl]phenyl}pyrimidine], the figures for the inhibitory constant (Ki) at OX1R and on OX2R were 17 nM and 0.67 nM, respectively.
`C[C@@H]1CC[C@@H](COc2ccc(F)cn2)CN1C(=O)c1c(F)cccc1-c1ncccn1` [Compound 1-34, 2-{3-fluoro-2-[((2R,5R)-5-{[(5-fluoropyridin-2-yl)oxy]methyl}-2-methylpiperidin-1-yl)carbonyl]phenyl}pyrimidine]: the Ki at OX1R was 8.2 nM; at OX2R, 0.68 nM.
As to `C[C@@H]1CC[C@@H](COc2ccc(F)cn2)CN1C(=O)c1ccccc1-n1cccn1` [Compound 1-37, 5-fluoro-2-({(3R,6R)-6-methyl-1-[2-(1H-pyrazol-1-yl)benzoyl]piperidin-3-yl}methoxy)pyridine], the inhibitory constant (Ki) came out at 55 nM on OX1R and 1.5 nM at OX2R.
For the compound `C[C@@H]1CC[C@@H](COc2ccc(F)cn2)CN1C(=O)c1ncccc1-c1ccccc1` [Compound 1-38, 2-[((2R,5R)-5-{[(5-fluoropyridin-2-yl)oxy]methyl}-2-methylpiperidin-1-yl)carbonyl]-3-phenylpyridine], the Ki came out at 86 nM at OX1R and 1.9 nM at OX2R.
As for `C[C@@H]1CC[C@@H](COc2ccc(Br)nc2)CN1C(=O)c1ccccc1-n1nccn1` [Compound 1-42, 2-bromo-5-({(3R,6R)-6-mcthyl-1-[2-(2H-1,2,3-triazol-2-yl)benzoyl]piperidin-3-yl}methoxy)pyridine], the Ki on OX1R was 64 nM; at OX2R, 3.8 nM.
Take `C[C@@H]1CC[C@@H](COc2ccnc(Cl)c2)CN1C(=O)c1ccccc1-n1nccn1` [Compound 1-43, 2-chloro-4-({(3R,6R)-6-methyl-1-[2-(2H-1,2,3-triazol-2-yl)benzoyl]piperidin-3-yl}methoxy)pyridine]: the Ki was determined as 140 nM on OX1R and 22 nM at OX2R.
As for `Cc1ccc(-n2nccn2)c(C(=O)N2CCCC(COc3ccc(F)nc3)C2)c1` (stereo not drawn) [Compound 2-1], the values for the inhibition constant Ki at OX1R and at OX2R were 96 nM and 29 nM, respectively.
Turning to `Cc1ccc(-n2nccn2)c(C(=O)N2C[C@H](COc3ccc(F)cn3)CC[C@H]2C)c1` [Compound A-9, 5-Fluoro-2-({(3R,6R)-6-methyl-1-[5-methyl-2-(2H-1,2,3-triazol-2-yl)benzoyl]piperidin-3-yl}methoxy)pyridine], the inhibitory constant (Ki) on OX1R was 1 nM; on OX2R it was 0.24 nM.
In the case of `Cc1ccc(-c2cnccn2)c(C(=O)N2C[C@H](COc3ccc(F)cn3)CC[C@H]2C)c1` [Compound B-3, 2-{2-[((2R,5R)-5-{[(5-Fluoropyridin-2-yl)oxy]methyl}-2-methylpiperidin-1-yl)carbonyl]-4-methylphenyl}pyrazine], the Ki at OX1R is 3.3 nM; at OX2R, 0.54 nM.
In the same order, the values of `Cc1cccc(OC[C@@H]2CC[C@@H](C)N(C(=O)c3ccccc3-n3nccn3)C2)n1` [Compound C-4, 2-Methyl-6-({(3R,6R)-6-methyl-1-[2-(2H-1,2,3-triazol-2-yl)benzoyl]piperidin-3-yl}methoxy)pyridine] are 22 nM and 0.67 nM.
Consider `Cc1ccc(-c2ncccn2)c(C(=O)N2C[C@H](COc3ccc(F)cn3)CC[C@H]2C)c1` [Compound E-5, 2-{2-[((2R,5R)-5-{[(5-Fluoropyridin-2-yl)oxy]methyl}-2-methylpiperidin-1-yl)carbonyl]-4-methylphenyl}pyrimidine], for which the Ki was determined as 2.9 nM on OX1R and 0.31 nM at OX2R.
`C[C@@H]1CC[C@@H](COc2ccc(F)cn2)CN1C(=O)c1cc(C(=O)O)ccc1-n1nccn1` [Compound F-4, 3-[((2R,5R)-5-{[(5-Fluoropyridin-2-yl)oxy]methyl}-2-methylpiperidin-1-yl)carbonyl]-4-(2H-1,2,3-triazol-2-yl)benzoic acid]: the Ki on OX1R turned out to be 260 nM; at OX2R, 410 nM.
The matching figures for `C[C@@H]1CC[C@@H](COc2ccc(F)cn2)CN1C(=O)c1cc(CO)ccc1-n1nccn1` [Compound G-1, [3-[((2R,5R)-5-{[(5-Fluoropyridin-2-yl)oxy]methyl}-2-methylpiperidin-1-yl)carbonyl]-4-(2H-1,2,3-triazol-2-yl)phenyl]methanol]: 14 nM and 1.7 nM.
In the case of `C[C@@H]1CC[C@@H](COc2ccc(F)cn2)CN1C(=O)c1cc(C(=O)O)ccc1-c1ncccn1` [Compound H-4, 3-[((2R,5R)-5-{[(5-fluoropyridin-2-yl)oxy]methyl}-2-methylpiperidin-1-yl)carbonyl]-4-pyrimidin-2-ylbenzoic acid], the figures for the Ki on OX1R and on OX2R were 84 nM and 37 nM, respectively.
The matching figures for `C[C@@H]1CC[C@@H](COc2ccc(F)cn2)CN1C(=O)c1cc(CO)ccc1-c1ncccn1` [Compound I-7, {3-[((2R,5R)-5-{[(5-Fluoropyridin-2-yl)oxy]methyl}-2-methylpiperidin-1-yl)carbonyl]-4-pyrimidin-2-ylphenyl}methanol]: 30 nM and 2 nM.
